Structures can show the parent of a compound that is named as a salt.
Tests used:
[1] = tested on: CXCR4; assay: CXCL12-driven calcium flux in 697 cells; format: cell-based; settings: 1 µM, 10 min pre-treatment, 100 ng/mL human CXCL12; n = 3
Description: Ca^2+ signaling was analyzed as described previously. Briefly, SupB15 and 697 cells were collected at 1 × 10^6 cells/treatment and loaded with calcium-sensitive dye Indo-1 AM (#I1223, Invitrogen) and 0.5 mg/mL of pluronic F-127 (#P3000MP, Invitrogen) in their respective media supplemented with 1% FBS at 37 °C for 45 min. Cells were then washed and treated with the inhibitors for 10 min at 37 °C. Baseline signal for calcium was measured for 30 s via flow cytometry, followed by stimulation with 100 ng/mL human CXCL12. The area under the curve (AUC) of each calcium flux plot was determined using FlowJo. The AUC of the water control (solvent for CXCL12) was subtracted from each treatment to obtain the correct estimation of the calcium signal upon CXCL12 stimulation.

[2] = tested on: AKT phosphorylation (PI3K signaling downstream of CXCR4); assay: Western blot, AKT S473 phosphorylation in BCR–ABL1 cells; format: cell-based; settings: 10 µM, 100 ng/mL mouse CXCL12, 5 min; n = 3
Description: BCR–ABL1 cells were collected as 5 × 10^6 cells/500 μL complete media and treated either with DMSO or different inhibitors in the absence and presence of 100 ng/mL mouse CXCL12 for 5, 15, and 30 min at 37 °C. Cells were then immediately transferred onto ice to stop the reaction and washed with ice-cold PBS. Cell extract was prepared by resuspending the cell pellet in 100 μL of radio-immunoprecipitation assay (RIPA) buffer supplemented with 1X protease inhibitor cocktail (#78429, Thermo Fisher), 1 mM sodium orthovanadate (Sigma-Aldrich), and 10 mM beta-glycerophosphate (Sigma-Aldrich). For each treatment, 15 μL of cell extract was mixed with 5 μL of 4X Laemmli buffer (reducing), boiled at 95 °C for 10 min, and run on 10% SDS-PAGE. Gels were wet-transferred to PVDF membranes (Millipore, Burlington, MA, USA) and stained with 0.1% ponceau-S solution to check for efficient blotting. The membranes were blocked with 3% BSA solution and incubated with primary antibodies at 4 °C overnight. The next day, primary antibodies were washed, and membranes were probed with horseradish peroxidase (HRP)-conjugated secondary antibodies at RT for 2 h. After washing, the blots were developed using Immobilon ECL Ultra Western HRP Substrate (#WBULS0500, Millipore), and images were acquired with a Fusion SL gel imaging system (Vilber Lourmat, Eberhardzell, Germany). […]

[3] = tested on: CXCR4; settings: ref [14],[17]; cited from earlier work
[4] = tested on: BCR–ABL1-transformed mouse B cells; assay: Flow cytometric viability analysis (viability dye); format: cell-based; design: Live gate (viability dye) / Dead gate (viability dye): unit not given here; settings: for Cell viability of BCR–ABL1 cells: 1–72 h, live cell count normalized to DMSO; for Dead gate (viability dye) / Live gate (viability dye): JM#170 10 µM, representative histogram of n = 3
Description: (§1) Cells treated with either solvent control DMSO or different concentrations of inhibitors for different time points were collected and washed with ice-cold PBS. […] After washing, labeled cells were resuspended in 100 μL of PBS and acquired using LSR-Fortessa (BD Bioscience, Heidelberg, Germany). FACS data were analyzed with FlowJo software version 10.0.

[5] = tested on: CXCR4; assay: Anti-CXCR4 antibody (clone 12G5) competition assay in SupB15 cells; format: binding, human; settings: increasing concentrations (1 nM to 10 µM), n = 2–3
Description: An anti-CXCR4 competition assay was conducted as previously described. […] Afterward, the cells were washed to remove unbound inhibitors and antibody, and measured via FACS for the fluorescence signal of the bound antibody. The fluorescence signal corresponding to only antibody (no inhibitor) was considered to be 100% antibody binding.

[6] = tested on: pro/anti-apoptotic genes (Jun, Bax, Bim, Bcl2, Bcl-xl, FasL); assay: Real-time gene expression analysis (Taqman) in BCR–ABL1 cells; format: cell-based, mouse; settings: 10 µM, n = 3
Description: BCR–ABL1 cells were plated at 1 × 10^6 cells/well of a 12-well plate in 1 mL of complete media and treated with DMSO or various inhibitors. After specific time points (24 and 48 h), RNA was isolated from cells using a ReliaPrep Cell RNA miniprep kit (#Z6011, Promega). Fifty nanograms of total RNA was reverse-transcribed using a high-capacity RNA to cDNA kit (#4387406, Thermo Fisher), and gene expression was measured via Taqman assay using Taqman Gene expression master mix (#4369016, Thermo Fisher) following ghd manufacturer’s protocol. The following Taqman probes were used: Jun (Mm07296811_s1), Bax (Mm00432051_m1), Bim (Mm00437796_m1), Bcl2 (Mm00477631_m1), Bcl-xl (00437783_m1), FasL (Mm00438864_m1), and beta actin (04394036_g1).

[7] = tested on: SupB15 cells; assay: Flow cytometric cell survival analysis, SupB15; format: cell-based, human; settings: for SupB15 cell survival vs DMSO: 10 µM, 24–96 h, n = 3; for Dead gate (viability dye) / Live gate (viability dye): JM#170 10 µM, representative histogram of n = 3
Description: as §1

[8] = tested on: caspase 8; assay: Caspase-Glo 8 activation assay in BCR–ABL1 cells; format: cell-based, mouse; settings: 10 µM; n = 3
Description: (§2) BCR–ABL1 cells were plated at 0.5 × 10^5 cells/well of a 96-well plate in 100 μL of complete media and treated with DMSO or various inhibitors. At specific time points (24, 48 and 72 h), activation of caspases was measured with a Caspase-Glo® 3/7 Assay (#G8090) and Caspase-Glo® 8 Assay (#G8200, Promega, Madison, WI, USA) following the manufacturer’s instructions.

[9] = tested on: BCR–ABL1-transformed mouse B cells; assay: Real-time cell growth analysis by IncuCyte (GFP+ cell enrichment); format: cell-based; settings: over 96 h
Description: A flat-bottom 96-well plate was coated with 0.01% poly-L ornithine (#P4957, Sigma-Aldrich, Hamburg, Germany) for 1 h at room temperature (RT). […] The cells were plated in 100 μL complete medium. […] Plate was prewarmed at 37 °C for 30 min prior to placing in the IncuCyte chamber. Scanning was conducted every two hours for total of 4 days.

[10] = tested on: caspase 3/7; assay: Caspase-Glo 3/7 activation assay in BCR–ABL1 cells; format: cell-based, mouse; settings: 10 µM, 24 and 48 h; n = 3
Description: as §2

Compound: ILRWSRK * (Pal)-NH2 [JM#170, lipid-conjugated truncated version of EPI-X4, CXCR4 antagonist]
- CXCL12-induced calcium flux, 697 [1]: completely blocked the calcium flux
- CXCL12-induced AKT S473 phosphorylation [2]: this elevation was blocked
- CXCL12-induced calcium signaling [3]: block CXCL12-induced calcium signaling
- Cell viability of BCR–ABL1 cells ([4]; 10 µM, n = 3): strong and rapid cell death
- Cells dying ([4]; 10 µM, within 1 h of treatment, n = 3): ~ 70%
- Dead gate (viability dye) ([4]; 1 h): 64.5
- Live gate (viability dye) ([4]; 1 h): 35.5
- Dead gate (viability dye) ([4]; 24 h): 85.0
- Live gate (viability dye) ([4]; 24 h): 15.0
- Dead gate (viability dye) ([4]; 48 h): 76.4
- Live gate (viability dye) ([4]; 48 h): 23.6
- Dead gate (viability dye) ([4]; 72 h): 63.6
- Live gate (viability dye) ([4]; 72 h): 36.4
- 12G5 antibody binding to CXCR4 [5]: significantly inhibited 12G5 binding
- Bax gene expression ([6]; 24 h): mildly upregulated
- Bcl2 gene expression ([6]; 24 h): significant increase
- Bcl-xl gene expression ([6]; 24 h): not altered at all
- Bim gene expression ([6]; 24 h): significantly elevated
- Jun gene expression ([6]; 24 h): significantly elevated
- Bax, Bim and Bcl2 gene expression ([6]; 48 h): still significantly elevated levels
- FasL gene expression [6]: inactivation of FasL
- SupB15 cell survival vs DMSO [7]: significantly reduced SupB15 cell survival
- Dead gate (viability dye) ([7]; 24 h): 19.0
- Live gate (viability dye) ([7]; 24 h): 81.0
- Dead gate (viability dye) ([7]; 72 h): 33.3
- Live gate (viability dye) ([7]; 72 h): 66.7
- Dead gate (viability dye) ([7]; 96 h): 41.7
- Live gate (viability dye) ([7]; 96 h): 58.3
- Caspase 8 activation vs DMSO [8]: neither JM#170 nor AMD3100 induced caspase 8
- GFP enrichment (BCR–ABL1 cell growth) vs DMSO ([9]; 10 µM, mean ± SEM, n = 4–5): significant reduction in GFP enrichment
- Caspase 3/7 activation vs DMSO [10]: significant increase in caspase 3/7 activation

Compound: c1cc(CN2CCCNCCNCCCNCC2)ccc1CN1CCCNCCNCCCNCC1 [AMD3100, AMD3100 octahydrochloride hydrate, reference compound]
- CXCL12-induced calcium flux, 697 [1]: completely blocked the calcium flux
- CXCL12-induced AKT S473 phosphorylation [2]: this elevation was blocked
- CXCL12-induced calcium signaling [3]: block the intracellular calcium response
- Cell viability of BCR–ABL1 cells ([4]; 10 µM, n = 3): did not induce any loss of cell viability
- 12G5 antibody binding to CXCR4 [5]: significantly inhibited 12G5 binding
- Pro/anti-apoptotic gene expression ([6]; 24 and 48 h): did not upregulate any gene expression
- SupB15 cell survival vs DMSO [7]: no effect on SupB15 cell survival
- Caspase 8 activation vs DMSO [8]: neither JM#170 nor AMD3100 induced caspase 8
- GFP enrichment (BCR–ABL1 cell growth) vs DMSO ([9]; 5 µM): also detectable
- GFP enrichment (BCR–ABL1 cell growth) vs DMSO ([9]; 10 µM, mean ± SEM, n = 4–5): only distinct at later time points
- Caspase 3/7 activation vs DMSO [10]: did not induce any caspase activation

— article PMC11312813, “An Optimized Peptide Antagonist of CXCR4 Limits Survival of BCR–ABL1-Transformed Cells in Philadelphia-Chromosome-Positive B-Cell Acute Lymphoblastic Leukemia” (International Journal of Molecular Sciences, 2024)
